Results on seven compounds are retold here after patent publication US5336485A, “Method for protecting animals against tacrine induced cytotoxic injury using sterol compounds” (priority 1993, dated 1994).

For data set [1], the system named is rat hepatocytes. Put plainly: EMS-induced cytotoxicity (LDH leakage/cell death) in rat hepatocyte suspensions. The note with it: for inhibition at 25 µM: Rattus norvegicus, Hepatocyte.
Data set [2] concerns rat hepatocytes. Put plainly: EMS-induced lipid peroxidation in rat hepatocyte suspensions. The note with it: 50 mM EMS. In kind it is cell-based. As for the experimental part: (§1) At each time-point, rapid separation of viable from non-viable hepatocytes and medium was accomplished by the dibutyl phthalate centrifugation method. Cell viability was monitored hourly by measuring LDH leakage with a Cobas Analyzer and intracellular [K^+ ]with a flame photometer. LDH was routinely measured in the medium while intracellular K^+ was measured in the 10% perchloric acid lysate of viable cells. Lipid peroxidation was determined by measuring TBA reactants in the medium. […] The samples were diluted with 0.3 ml 1% ascorbate in 0.1 M SDS, 0.4 ml ethanol, sonicated and extracted once with 0.8 ml hexane. Next, the hexane extract was evaporated to dryness with N2, the residue dissolved in 2.5% ascorbate in methanol (1 ml) and analyzed (100 μl) by high-performance liquid chromatograph (HPLC). […] The mobile phase, 95% MeOH was run isocratically and the HPLC retention times for delta and alpha-tocopherol were approximately eleven and sixteen minutes, respectively. […] Following the addition of 0.2 ml 4 M HC1, the neutralized KOH-MeOH extracted with 0.8 ml hexane. […] A standard curve for each tocopherol congener was run with every assay. […] Only viable cells were monitored in the laboratory procedures.
(§2) Rat hepatocyte suspensions were subjected to 50 mM EMS and the percentage of cell death, the percentage of intracellular K^+ (a metabolic parameter as discussed above), the depletion of ATP and the effect on lipid peroxidation were monitored.

Data set [3] concerns male Sprague-Dawley rats. Put plainly: CCl4 induced lethality in rats. It is filed as in vivo, rat.
Data set [4] has as its system liver. Put plainly: CCl4 induced hepatotoxicity in rats (serum AST/ALT). In kind it is in vivo, rat. The note with it: for Serum AST Levels: listed as Cholesteryl Succinate free acid. The method in brief: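 Male Sprague-Dawley rats received test compounds i.p. at 100 mg/kg 20–24 h before oral CCl4 (2.9 g/kg or 1 g/kg). Serum AST and ALT were measured 48 h after CCl4 challenge.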

The test system of data set [5] is CDF1 mice. Put plainly: Doxorubicin lethality in CDF1 mice (normal tissue). The note with it: 100 mg/kg ip 20 h prior, DOX 10, 15, 20, 25 mg/kg. In kind it is in vivo, mouse. The method, then: (§3) The experiments were conducted in accordance with NCI Protocol 1,100. FIGS. 8a-d show the experimental results obtained when male CDF1 mice (n=6) received either vehicle only or 100mg/kg body weight i.p. dose of either alpha-TS or cholesteryl succinate 20 hours prior to DOX administration. FIGS. 8a-d respectively show the results obtained when the mice received 10, 15, 20, and 25 mg DOX/kg body weight. […] FIGS. 9a-d show the experimental results obtained when male CDF1 mice ([…]) were injected (i.p.) with 10^6 murine L1210 leukemia cells followed immediately by an injection of alpha-TS tris salt (100 mg/kg, i.p.) or saline injection (vehicle), and twenty hours later (Day=0) each mouse in three of the groups was i.p. injected with 15, 20, or 25 mg DOX/kg body weight ([…]). Survival was monitored for twenty days.

The test system of data set [6] is liver. The data set is described as follows: THA-induced hepatotoxicity in rats (serum AST). It is filed as in vivo, rat. The note with it: 100 mg/kg ip.
Description: FIGS. 10 and 11 show the results of in vivo experiments where male Sprague-Dawley rats were given an oral dose of 15 or 30 mg THA/kg body weight, respectively. […] The serum AST levels were determined with respect to time after the THA challenge.
For data set [7], the system named is L1210 leukemia cells. Put plainly: Doxorubicin in L1210 leukemia bearing CDF1 mice. It is filed as in vivo, mouse. The note with it: DOX 10 mg/kg. The method, then: as §3
In data set [8] the test system is rat. The note with it: in vivo, ip, 100 mg/kg.
Description: The duration of pentobarbitone-induced sleeping time is directly dependent on the metabolism of pentobarbitone in the liver.
^a Rats are pretreated, with the compounds listed, 20 hours prior to
The test system of data set [9] is rat hepatocytes. Put plainly: ATP content of rat hepatocyte suspensions. The note with it: 25 μM. In kind it is cell-based.
Description: It is well known that the succinate molecule is utilized by the cell to produce ATP energy. In the tricarboxylic acid cycle, succinate is oxidized by succinate dehydrogenase to produce ATP. Oxidation occurs in the mitochondria and the mitochondria can utilize both succinate formed in the mitochondria or succinate transported to the mitochondria. Increasing ATP production may enhance cellular repair processes as well as normal metabolic processes. For example, the cell's ability to remove free intracellular Ca^2+ during a toxic insult is related to ATP production. Succinate administration stimulates gluconeogenesis to form glucose 6-phosphate which is used for producing energy anaerobically (ATP formation through glycolysis) and for producing reducing equivalents (NADPH formation through the hexose monophosphate shunt needed for lipid and nucleotide biosynthesis and other biosynthetic reductions and enzymatic reactions, e.g., glutathione reductase). An in vitro experiment was conducted to determine the relationship between the release of succinate from alpha-TS and the cellular ATP level. The experiment was performed by incubating a tocopherol analog in a rat hepatocyte suspension and measuring the ATP level at the beginning and end of the test.
as §2

Data set [10] concerns L1210 leukemia cells.
Data set [11] has as its system gluconeogenesis or ATP production. The note with it: cited from earlier work.
The test system of data set [12] is isolated rat liver mitochondria. The note with it: 6 mM succinate; cited from earlier work.
For data set [13], the system named is rat hepatocytes. The data set is described as follows: Cellular alpha-tocopherol and tocopherol ester content of rat hepatocytes. The note with it: 25 μM, Table 2. As for the experimental part: as §1
The hepatocytes were subsequently exposed to 50mM EMS for three hours.

Data set [14] in a line: Tissue distribution of alpha-tocopherol and alpha-tocopherol ester in rats. In kind it is in vivo, rat. The note with it: 100 mg/kg ip, 24 h. The method, then:
100 mg/kg body weight of a tocopherol analog was administered to Sprague-Dawley rats using a peanut oil:ethanol vehicle (3:2). Twenty four hours later the rats were sacrificed and the accumulation of the tocopherol analog in the liver was determined.
A similar in vivo experiment to that discussed in conjunction with Table 5 was performed to determine if other tissues accumulate alpha-TS. Male Sprague-Dawley rats were given a 100 mg/kg dose of alpha-TS using a variety of chemical forms and vehicles. A variety of techniques were used to administer the alpha-TS. Twenty four hours later the rats were sacrificed and the tissues were tested for alpha-TS accumulation.

Data set [15] has as its system variety of cell types. The note with it: cited from earlier work.
The test system of data set [16] is L1210 murine leukemia cells. Put plainly: Inhibition of L1210 leukemia cell growth in vitro. It is filed as cell-based, mouse. The method, then:
Similar in vitro experiments were conducted with cholesteryl succinate tris salt and alpha-TS tris salt.

[17] abbreviates: 100 mg/kg, single dose 24 h prior, CCl4 […].
Where [18] appears, read: rat plasma, 100 mg/kg ip 24 h prior, 48 h after […] CCl4.
The mark [19] stands for this setting: 100 mg/kg ip 20 h prior, 48 h after 1 g/kg CCl4 (Table 20).
The mark [20] stands for this setting: 100 mg/kg ip 20 h prior, 48 h after 1 g/kg CCl4 (Table 27).

Where a name gives a salt, the structure may show the parent alone.

As for `CC(C)CCC[C@@H](C)[C@H]1CC[C@H]2[C@@H]3CC=C4C[C@@H](OC(=O)CCC(=O)O)CC[C@]4(C)[C@H]3CC[C@]12C` [Cholesteryl Succinate], the “Cell Death” value in data set [1] (50 mM EMS, 5 Hrs, alpha-TS 25, methyl ester 50, cholesteryl succinate 100, monomethyl/dimethyl succinate 250 μM) is recorded as 48 ± 4%. The inhibition at 25 µM in data set [1] (5 h, read-out: Percent Cytoprotection) was found to be 30 ± 22%. The “Lipid Peroxidation” value in data set [2] (5 Hrs, concentrations as cell death (Table 15)) is 11.3 ± 4.2 nmolMDA/10^6 cells. In addition, the “Days Survived After CCl4 Treatment” value in [3] (setting [17]) is > 7 days. For the same compound, the “Serum AST Levels” value in data set [4] (100 mg/kg ip 20 h prior, 24 hrs after 2 g/kg CCl4 (Table 26)) is on record as 1.84 ± 1.13 10^3 units/L; in data set [4] (100 mg/kg ip 20 h prior, 48 hrs after 2 g/kg CCl4 (Table 26)), 1.90 ± 2.64 10^3 units/L. Moreover, in data set [5], the “survival after DOX, normal mice (FIGS. 8a-d)” value was “survived significantly longer”. Also, the “protection against THA hepatotoxicity (FIG. 10)” value in data set [6] (THA 15 mg/kg) is recorded as “protects against the hepatotoxicity resulting from THA”. Moreover, the “protection against THA hepatotoxicity (FIG. 11)” value in [6] (THA 30 mg/kg) is on record as “protects against the hepatotoxicity resulting from THA”.

As for `COc1cccc2c1C(=O)c1c(O)c3c(c(O)c1C2=O)C[C@@](O)(C(=O)CO)C[C@@H]3O[C@H]1C[C@H](N)[C@H](O)[C@H](C)O1` [DOX, doxorubicin, reference compound], in data set [7], the “survival of tumor bearing mice given DOX” value is “dramatically increased”.

`CC(C)(C(=O)c1cccnc1)c1cccnc1` [Metyrapone]: the “Sleeping Time” value in [8] was 900 ± 120 min.

For the compound `O=C(O)CCC(=O)O` [Succinic Acid, reference compound], in data set [1] (5 h, read-out: Percent Cytoprotection, 25 μM, 50 mM EMS, 5 h), the inhibition at 25 µM came to 0%. Further, the “Survival after CCl4 treatment” value in [3] (100 mg/kg ip 24 h prior, […] CCl4 oral) is recorded as “No”. Besides, the “Days Survived After CCl4 Treatment” value in [3] (setting [17]) turned out to be 2 days. For the same compound, the “cytoprotection (Table 7, in words)” value in data set [3] (rat, in vivo) is “not cytoprotective”. Besides, in [9], the “Rate of ATP Depletion” value came to 1.8 ± 0.2 nmoles/10^6 cell/hr. Also, the “Cellular ATP” value in data set [9] (0 Hr) worked out at 15.7 ± 1.3 nmoles/10^6 cells; in data set [9] (6 Hr), 4.9 ± 0.6 nmoles/10^6 cells. For the same compound, the “Survival time (footnote)” value in [10] (mouse, in vivo) was “identical for succinate and vehicle treated”. In addition, in [11], the “concentration required to stimulate gluconeogenesis or ATP production” value is “Millimolar concentrations”. Also, the “increase of Ca2+ capacity and Ca2+ retention of mitochondria” value in [12] was “five to seven”.

`CC(=O)Oc1c(C)c(C)c2c(c1C)CC[C@@](C)(CCC[C@H](C)CCC[C@H](C)CCCC(C)C)O2` [alpha-TA, d-alpha-tocopherol acetate, reference compound]: the inhibition at 25 µM was found to be 12% in data set [1] (read-out: % Protection, 25 μM, 50 mM EMS) and 14% in data set [2] (Rattus norvegicus, Hepatocyte, 25 μM). Moreover, in [13], the “Cellular Tocopherol ester” value amounted to 1.7 nmoles/10^6 cells. Further, the “Cellular alpha-T” value in data set [13] came out at 0.3 nmoles/10^6 cells. Besides, the “Protection from CCl4” value in data set [3] (100 mg/kg ip (Table 5)) is “No”. Besides, the “Days Survived After CCl4 Treatment” value in data set [3] (100 mg/kg ip, 24 h prior, CCl4 2.2 g/kg) was > 7 days; in [3] (100 mg/kg ip, 24 h prior, CCl4 3.8 g/kg) it was 2 days; in [3] (100 mg/kg ip, 24 h prior, CCl4 5.0 g/kg) it was 2 days; in [3] (100 mg/kg ip, 24 h prior, CCl4 […]), 3 days. For the same compound, the ALT in [4] (setting [18]) was 6,108 ± 417 Units/L. Further, in data set [4] (setting [18]), the AST is 20,233 ± 3525 Units/L. Besides, the “Liver Concentration Ester” value in [14] worked out at 92 ± 6 nmol/g. The “protection against carcinogenic effects of radiation and cancer causing chemicals” value in data set [15] is reported as “ineffective”.

`Cc1c(C)c2c(c(C)c1OC(=O)CCC(=O)O)CC[C@@](C)(CCC[C@H](C)CCC[C@H](C)CCCC(C)C)O2` [alpha-TS tris salt, Alpha tocopheryl succinate tris salt]: in data set [4] (setting [19]), the ALT was 0.371 ± 0.246 10^3 units/L and the AST is listed as 1.86 ± 1.11 10^3 units/L. In addition, in data set [4] (setting [20]), the ALT was 0.52 ± 0.16 10^3 units/L and the AST was 0.79 ± 0.26 10^3 units/L. For the same compound, in [4] (Rattus norvegicus, 100 mg/kg ip 20 h prior, 48 h after 1 g/kg CCl4, read-out: % Hepatoprotection), the inhibition in vivo at 100 mg/kg was 80%. In addition, the “growth rate of L1210 cells (FIG. 7)” value in data set [16] was “significantly suppress the growth rate of L1210 cells”. The “Survival Time” value in data set [10] (100 mg/kg ip) amounted to 7.6 ± 0.6 days.

Turning to `COC(=O)CCC(=O)O` [methyl ester succinate, methyl ester of succinate], the “concentration required to stimulate gluconeogenesis or ATP production” value in data set [11] is “Millimolar concentrations”.
